Measurements published in patent US10584133B2, “Thienopyrimidinone compounds” (BioTheryX, Inc., priority 2018, dated 2020).

Experiments:
CK1α = target: T1, CK1α (Homo sapiens, UniProt P48729+Q96SW2); experiment: CK1α degradation assay (Western blot, MV-4-11 cells); format: cell-based; settings: 6-8 hours
T1 construct: Whole cell extracts were prepared using RIPA buffer; endogenous in cells; host or cells: MV-4-11
Protocol: (§1) MV-4-11 cells were grown in RPMI 1640 media supplemented with 10% fetal bovine serum, streptomycin and penicillin.
(§2) Cells were cultured at approximately 10^6 cells per mL and incubated in DMSO or the indicated compounds for 6-8 hours. Whole cell extracts were prepared using RIPA buffer according to manufacturer's protocol (Pierce). Briefly, 3×10^6 cells were washed once in PBS, the cell pellets were resuspended in RIPA buffer and allowed to incubate for 15 minutes on ice. Cells debris was removed by centrifugation and the cleared whole cell lysates were transferred to new tubes for further analysis.
(§3) For Western blot analysis, whole cell protein extracts were separated on 4-12% SDS-polyacrylamide gels, transferred to nitrocellulose and probed with the indicated primary antibodies. Membranes were subsequently washed and probed with the appropriate IRDye secondary antibodies (LI-COR). The signal was detected using the Odyssey Imaging System (LI-COR).
(§4) The following antibodies were used in these studies: Anti-eRF3/GSPT1: Abcam, ab126090 (Cambridge, Mass.); Anti-Ikaros: Abcam, ab191394 (Cambridge, Mass.); Anti-CK1α: Abcam, ab108296 (Cambridge, Mass.); Anti-PDE6D: Santa Cruz Biotechnology, sc-166854 (Dallas, Tex.); β-actin (8H10D10) mouse monoclonal antibody: Cell Signaling Technology, #3700 (Danvers, Mass.); IRDye 680RD Goat anti-rabbit antibody: LI-COR, 926-68071 (Lincoln, Nebr.); IRDye 800CW Goat anti-mouse antibody: LI-COR, 926-32210 (Lincoln, Nebr.).

IL-6 = IL-6 in LPS-induced PBMCs / CD14+ monocytes (Meso Scale); format: cell-based; settings: LPS 100 ng/mL, 18-24 h
Protocol: (§5) Either frozen primary blood mononuclear cells (PBMCs) or frozen CD14+ mobilized peripheral blood monocytes were purchased from AllCells (PB003F, Normal Peripheral Blood MNC (Alameda, Calif.)). Cells were quick thawed, washed 1-time with RPMI-1640 (10% FBS/1% Pen-Strep) and plated in 96 well plates at 200,000 cells per well. Cells were pretreated with DMSO only or Compound 12 for 1 h and then induced with 100 ng/mL lipopolysaccharide (LPS) for 18-24 h. The supernatant was analyzed for IL-1β, IL-6, and TNFα, using Meso Scale assay according to manufacturer's protocol. The negative control wells were treated with DMSO.

PDE6D = target: T2, PDE6D (Homo sapiens, UniProt O43924+Q96SW2); experiment: PDE6 degradation assay (Western blot, MV-4-11 cells); format: cell-based; settings: 6-8 hours
T2 construct: Whole cell extracts were prepared using RIPA buffer; endogenous in cells; host or cells: MV-4-11
Protocol: as §1, §2, §3, §4

IL-2 = IL-2 in anti-CD3 stimulated PBMCs (Mesoscale); format: cell-based, human; settings: fold difference from DMSO control, 24 h
Protocol: For the IL-2 analysis, 96 well plates were precoated with 1 μg/mL anti-human CD3 antibody (OKT3, eBioscience Inc., San Diego, Calif.). After washing with PBS, Compound 12 was added (50 μL/well) followed by PBMCs diluted at 3-4 million cells/mL (150 μL/well). Plates were incubated for 24 h and the supernatants collected for Mesoscale IL-2 analysis. IL-2 activity is measured as fold difference from the DMSO control.

MV-4-11 cells = experiment: MV-4-11 cell viability assay (CellTiter-Glo); format: cell-based; settings: 3 days
Protocol: MV-4-11 cells were cultured in RPMI 1640 media supplemented with 10% fetal bovine serum, streptomycin and penicillin, and were plated in white walled 96-well plates at 2500 cells/well. Cells were incubated in DMSO (control) or the indicated compounds for 3 days at 37° C. and 5% CO2. Following the incubation period, 100 μL of CellTiterGlow (CTG) reagent (CellTiter-Glo® Luminescent Cell Viability Assay, Promega (Madison, Wis.)) was added to each well. Following a 10 minutes incubation with shaking, luminescence was measured using the EnVision Multimode plate reader.

IL-1β = IL-1β in LPS-induced PBMCs / CD14+ monocytes (Meso Scale); format: cell-based; settings: LPS 100 ng/mL, 18-24 h
Protocol: as §5

TNFα = TNFα in LPS-induced PBMCs / CD14+ monocytes (Meso Scale); format: cell-based; settings: LPS 100 ng/mL, 18-24 h
Protocol: as §5

Helios = target: T3, Helios (Homo sapiens, UniProt Q96SW2+Q9UKS7); experiment: Helios assay (Western blot degradation, MV-4-11 cells); format: cell-based; settings: 6-8 hours
T3 construct: Whole cell extracts were prepared using RIPA buffer; endogenous in cells; host or cells: MV-4-11
Protocol: as §1, §2, §3, §4

IKAROS = target: T4, IKAROS (Homo sapiens, UniProt Q13422+Q96SW2); experiment: IKAROS degradation assay (Western blot, MV-4-11 cells); format: cell-based; settings: 6-8 hours
T4 construct: endogenous in cells; host or cells: MV-4-11
Protocol: as §1, §2, §3, §4

GSPT1 = GSPT1 degradation assay (Western blot, MV-4-11 cells); format: cell-based; settings: 6-8 hours
Protocol: as §1, §2, §3, §4

T4 sequence (Q13422 whole entry): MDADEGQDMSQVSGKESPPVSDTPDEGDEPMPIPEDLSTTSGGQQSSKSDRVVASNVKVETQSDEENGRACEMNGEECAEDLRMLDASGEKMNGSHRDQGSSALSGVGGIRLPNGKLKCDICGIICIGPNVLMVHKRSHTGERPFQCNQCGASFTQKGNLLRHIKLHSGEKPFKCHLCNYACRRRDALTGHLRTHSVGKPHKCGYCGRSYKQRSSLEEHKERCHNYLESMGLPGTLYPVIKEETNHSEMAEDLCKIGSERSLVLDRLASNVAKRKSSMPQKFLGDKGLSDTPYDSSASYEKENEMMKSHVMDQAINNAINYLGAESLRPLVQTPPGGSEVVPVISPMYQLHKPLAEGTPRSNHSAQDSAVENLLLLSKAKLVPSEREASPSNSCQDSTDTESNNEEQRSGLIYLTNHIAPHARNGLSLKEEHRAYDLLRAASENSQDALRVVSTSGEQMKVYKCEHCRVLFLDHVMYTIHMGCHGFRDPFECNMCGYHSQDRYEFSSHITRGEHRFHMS
T4 sequence (Q96SW2 whole entry): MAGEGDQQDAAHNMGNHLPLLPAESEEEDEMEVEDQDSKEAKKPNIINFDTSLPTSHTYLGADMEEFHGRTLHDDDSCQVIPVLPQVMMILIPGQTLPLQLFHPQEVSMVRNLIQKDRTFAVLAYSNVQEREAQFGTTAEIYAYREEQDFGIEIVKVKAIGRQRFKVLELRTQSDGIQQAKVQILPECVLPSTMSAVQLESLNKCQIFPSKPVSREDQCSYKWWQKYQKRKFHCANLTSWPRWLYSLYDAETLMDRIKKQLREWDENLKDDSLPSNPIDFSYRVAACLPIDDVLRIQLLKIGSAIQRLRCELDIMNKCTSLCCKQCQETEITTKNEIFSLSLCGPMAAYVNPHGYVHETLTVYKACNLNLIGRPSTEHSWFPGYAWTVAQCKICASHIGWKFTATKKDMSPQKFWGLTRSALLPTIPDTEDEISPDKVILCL
T4 sequence (Q16531 whole entry partner): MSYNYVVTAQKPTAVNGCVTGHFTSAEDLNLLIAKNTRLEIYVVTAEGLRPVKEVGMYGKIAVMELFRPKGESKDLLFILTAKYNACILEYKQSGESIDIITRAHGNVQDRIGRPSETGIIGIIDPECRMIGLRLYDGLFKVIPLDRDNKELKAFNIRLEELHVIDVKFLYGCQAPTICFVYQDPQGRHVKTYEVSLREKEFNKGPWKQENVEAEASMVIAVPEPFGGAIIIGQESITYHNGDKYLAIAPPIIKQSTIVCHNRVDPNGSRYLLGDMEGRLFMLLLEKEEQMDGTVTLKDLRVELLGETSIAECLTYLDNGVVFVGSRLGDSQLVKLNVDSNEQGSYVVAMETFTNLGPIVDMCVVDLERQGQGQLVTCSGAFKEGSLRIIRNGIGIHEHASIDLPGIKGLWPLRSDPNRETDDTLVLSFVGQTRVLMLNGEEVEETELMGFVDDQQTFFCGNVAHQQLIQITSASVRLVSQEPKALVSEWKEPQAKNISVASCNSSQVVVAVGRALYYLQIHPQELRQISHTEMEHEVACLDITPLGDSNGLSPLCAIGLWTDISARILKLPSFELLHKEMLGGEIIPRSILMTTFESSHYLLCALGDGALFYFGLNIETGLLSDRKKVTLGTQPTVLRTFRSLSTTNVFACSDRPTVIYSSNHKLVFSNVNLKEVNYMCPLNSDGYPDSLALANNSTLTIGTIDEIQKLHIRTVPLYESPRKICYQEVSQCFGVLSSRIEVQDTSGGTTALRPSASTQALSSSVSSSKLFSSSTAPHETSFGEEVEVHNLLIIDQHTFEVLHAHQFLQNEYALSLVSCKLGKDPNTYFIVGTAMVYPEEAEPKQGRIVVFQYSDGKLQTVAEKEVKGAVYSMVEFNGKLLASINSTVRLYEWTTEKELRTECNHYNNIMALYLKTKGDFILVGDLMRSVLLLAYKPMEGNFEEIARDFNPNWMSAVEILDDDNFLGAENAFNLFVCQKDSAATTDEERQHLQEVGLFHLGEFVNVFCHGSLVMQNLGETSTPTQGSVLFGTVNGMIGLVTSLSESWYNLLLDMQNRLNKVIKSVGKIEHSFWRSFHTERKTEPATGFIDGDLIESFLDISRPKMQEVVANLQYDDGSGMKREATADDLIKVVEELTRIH
T3 sequence (Q9UKS7 whole entry): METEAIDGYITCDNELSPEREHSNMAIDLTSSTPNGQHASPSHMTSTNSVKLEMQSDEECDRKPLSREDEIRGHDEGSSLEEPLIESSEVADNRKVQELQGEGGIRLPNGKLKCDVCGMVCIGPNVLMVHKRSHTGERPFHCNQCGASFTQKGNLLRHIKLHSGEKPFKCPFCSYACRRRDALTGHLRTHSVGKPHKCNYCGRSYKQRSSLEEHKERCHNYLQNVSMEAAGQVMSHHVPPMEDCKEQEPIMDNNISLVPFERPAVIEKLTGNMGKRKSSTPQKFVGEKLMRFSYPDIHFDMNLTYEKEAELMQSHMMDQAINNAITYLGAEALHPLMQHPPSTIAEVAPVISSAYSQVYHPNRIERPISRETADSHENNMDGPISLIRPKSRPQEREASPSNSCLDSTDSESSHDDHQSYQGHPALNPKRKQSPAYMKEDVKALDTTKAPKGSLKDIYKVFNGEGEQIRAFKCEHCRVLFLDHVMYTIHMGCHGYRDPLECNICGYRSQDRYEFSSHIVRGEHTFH
T3 sequence (Q96SW2 whole entry): as the sequence (Q96SW2 whole entry) above
T3 sequence (Q16531 whole entry partner): as the sequence (Q16531 whole entry partner) above
T2 sequence (O43924 whole entry): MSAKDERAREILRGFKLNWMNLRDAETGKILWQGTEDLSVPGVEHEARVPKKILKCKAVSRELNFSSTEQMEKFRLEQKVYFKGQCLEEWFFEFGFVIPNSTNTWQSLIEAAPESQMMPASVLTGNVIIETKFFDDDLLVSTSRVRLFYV
T2 sequence (Q96SW2 whole entry): as the sequence (Q96SW2 whole entry) above
T2 sequence (Q16531 whole entry partner): as the sequence (Q16531 whole entry partner) above
T1 sequence (P48729 whole entry): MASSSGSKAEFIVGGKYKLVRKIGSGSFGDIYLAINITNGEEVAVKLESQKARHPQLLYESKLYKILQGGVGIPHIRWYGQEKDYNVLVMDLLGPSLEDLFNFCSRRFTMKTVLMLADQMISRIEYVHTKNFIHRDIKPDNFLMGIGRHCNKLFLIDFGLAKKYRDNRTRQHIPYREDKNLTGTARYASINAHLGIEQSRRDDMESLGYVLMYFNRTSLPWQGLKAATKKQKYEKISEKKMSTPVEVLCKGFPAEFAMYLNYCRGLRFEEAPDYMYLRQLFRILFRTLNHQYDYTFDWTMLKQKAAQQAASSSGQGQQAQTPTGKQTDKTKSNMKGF
T1 sequence (Q96SW2 whole entry): as the sequence (Q96SW2 whole entry) above
T1 sequence (Q16531 whole entry partner): as the sequence (Q16531 whole entry partner) above

With `Cc1ccc(NC(=O)NCc2scc3c(=O)n(C4CCC(=O)NC4=O)c(C)nc23)cc1Cl` (stereo not drawn) [Compound 12, 1-(3-chloro-4-methylphenyl)-3-((3-(2,6-dioxopiperidin-3-yl)-2-methyl-4-oxo-3,4-dihydrothieno[3,4-d]pyrimidin-7-yl)methyl)urea] the “CK1α % Degradation at 15 μM” value (CK1α) was 16%, the “CK1α % Degradation at 30 μM” value (CK1α) was 45% and the inhibition at 1 µM (IL-6; 1 μM) was 17%. The inhibition at 10 µM (IL-6; 10 μM) was 53%, the “PDE6D % Degradation at 15 μM” value (PDE6D) was 0% and the “PDE6D % Degradation at 30 μM” value (PDE6D) was 21%. For the same compound, the “IL-2 Fold Change” value (IL-2; 1 μM) was 3.6 Fold Change, the “IL-2 Fold Change” value (IL-2; 10 μM) was 3.1 Fold Change and the “MV-4-11 Cell Viability % DMSO at 15 μM” value (MV-4-11 cells) was 0 % DMSO. For the same compound, the “MV-4-11 Cell Viability % DMSO at 30 μM” value (MV-4-11 cells) was 0 % DMSO, the inhibition at 1 µM (IL-1β; 1 μM) was 80% and the inhibition at 10 µM (IL-1β; 10 μM) was 92%. For the same compound, the inhibition at 1 µM (TNFα; 1 μM) was 79%, the inhibition at 10 µM (TNFα; 10 μM) was 91% and the “Helios % Degradation at 15 μM” value (Helios) was 49%. The “Helios % Degradation at 30 μM” value (Helios) was 69%, the “IKAROS % Degradation at 15 μM” value (IKAROS) was 28% and the “IKAROS % Degradation at 30 μM” value (IKAROS) was 60%. The “GSPT1 % Degradation at 15 μM” value (GSPT1) was 96% and the “GSPT1 % Degradation at 30 μM” value (GSPT1) was 97%.

`Cc1nc2sccc2c(=O)n1C1CCC(=O)NC1=O` (stereo not drawn) [Compound 3, 3-(2-methyl-4-oxothieno[2,3-d]pyrimidin-3(4H)-yl)piperidine-2,6-dione] was tested, and the “PDE6D % Degradation at 15 μM” value (PDE6D) was 0%, the “PDE6D % Degradation at 30 μM” value (PDE6D) was 10% and the “MV-4-11 Cell Viability % DMSO at 15 μM” value (MV-4-11 cells) was 97 % DMSO. The “MV-4-11 Cell Viability % DMSO at 30 μM” value (MV-4-11 cells) was 94 % DMSO.

In the case of `Cc1ccc(NC(=O)NCc2cc3nc(C)n(C4CCC(=O)NC4=O)c(=O)c3s2)cc1Cl` (stereo not drawn) [Compound 13, 1-(3-chloro-4-methylphenyl)-3-((3-(2,6-dioxopiperidin-3-yl)-2-methyl-4-oxo-3,4-dihydrothieno[3,2-d]pyrimidin-6-yl)methyl)urea], the “CK1α % Degradation at 15 μM” value (CK1α) is reported as 31%, the “CK1α % Degradation at 30 μM” value (CK1α) is reported as 35% and the “PDE6D % Degradation at 15 μM” value (PDE6D) is reported as 4%. For the same compound, the “PDE6D % Degradation at 30 μM” value (PDE6D) was 9%, the “MV-4-11 Cell Viability % DMSO at 15 μM” value (MV-4-11 cells) was 2 % DMSO and the “MV-4-11 Cell Viability % DMSO at 30 μM” value (MV-4-11 cells) was 0.73 % DMSO. For the same compound, the “Helios % Degradation at 15 μM” value (Helios) was 50%, the “Helios % Degradation at 30 μM” value (Helios) was 21% and the “IKAROS % Degradation at 15 μM” value (IKAROS) was 65%. For the same compound, the “IKAROS % Degradation at 30 μM” value (IKAROS) was 55%, the “GSPT1 % Degradation at 15 μM” value (GSPT1) was 87% and the “GSPT1 % Degradation at 30 μM” value (GSPT1) was 87%.

In the case of `Cc1nc2scc(Br)c2c(=O)n1C1CCC(=O)NC1=O` (stereo not drawn) [Compound 5, 3-(5-bromo-2-methyl-4-oxothieno[2,3-d]pyrimidin-3(4H)-yl)piperidine-2,6-dione], the “PDE6D % Degradation at 15 μM” value (PDE6D) is reported as 0% and the “PDE6D % Degradation at 30 μM” value (PDE6D) is reported as 15%.

For `Cc1cc2c(=O)n(C3CCC(=O)NC3=O)c(C)nc2s1` (stereo not drawn) [Compound 6, 3-(2,6-dimethyl-4-oxothieno[2,3-d]pyrimidin-3(4H)-yl)piperidine-2,6-dione], the “MV-4-11 Cell Viability % DMSO at 15 μM” value (MV-4-11 cells) was 89 % DMSO and the “MV-4-11 Cell Viability % DMSO at 30 μM” value (MV-4-11 cells) was 91 % DMSO.

`Cc1nc2scc(N)c2c(=O)n1C1CCC(=O)NC1=O` (stereo not drawn) [Compound 10, 3-(5-amino-2-methyl-4-oxothieno[2,3-d]pyrimidin-3(4H)-yl)piperidine-2,6-dione] was tested, and the “Helios % Degradation at 15 μM” value (Helios) was 0%, the “Helios % Degradation at 30 μM” value (Helios) was 16% and the “IKAROS % Degradation at 15 μM” value (IKAROS) was 49%. For the same compound, the “IKAROS % Degradation at 30 μM” value (IKAROS) was 53%.

In the case of `Cc1nc2c(CN)scc2c(=O)n1C1CCC(=O)NC1=O.O=C(O)C(F)(F)F` (stereo not drawn) [Compound 11, 3-(7-(aminomethyl)-2-methyl-4-oxothieno[3,4-d]pyrimidin-3(4H)-yl)piperidine-2,6-dione 2,2,2-trifluoroacetate], the “CK1α % Degradation at 15 μM” value (CK1α) is reported as 17%, the “CK1α % Degradation at 30 μM” value (CK1α) is reported as 0% and the “PDE6D % Degradation at 15 μM” value (PDE6D) is reported as 30%. For the same compound, the “PDE6D % Degradation at 30 μM” value (PDE6D) was 41%, the “MV-4-11 Cell Viability % DMSO at 15 μM” value (MV-4-11 cells) was 94 % DMSO and the “MV-4-11 Cell Viability % DMSO at 30 μM” value (MV-4-11 cells) was 78 % DMSO.

`Cc1nc2cscc2c(=O)n1C1CCC(=O)NC1=O` (stereo not drawn) [Compound 2, 3-(2-methyl-4-oxothieno[3,4-d]pyrimidin-3(4H)-yl)piperidine-2,6-dione] was tested, and the “PDE6D % Degradation at 15 μM” value (PDE6D) was 0%, the “PDE6D % Degradation at 30 μM” value (PDE6D) was 24% and the “IKAROS % Degradation at 15 μM” value (IKAROS) was 0%. For the same compound, the “IKAROS % Degradation at 30 μM” value (IKAROS) was 7%.

For `Cc1nc2sc(Br)cc2c(=O)n1C1CCC(=O)NC1=O` (stereo not drawn) [Compound 8, 3-(6-bromo-2-methyl-4-oxothieno[2,3-d]pyrimidin-3(4H)-yl)piperidine-2,6-dione], the “CK1α % Degradation at 15 μM” value (CK1α) was 8% and the “CK1α % Degradation at 30 μM” value (CK1α) was 0%.

`Cc1sc2nc(C)n(C3CCC(=O)NC3=O)c(=O)c2c1N` (stereo not drawn) [Compound 7, 3-(5-amino-2,6-dimethyl-4-oxothieno[2,3-d]pyrimidin-3(4H)-yl)piperidine-2,6-dione] was tested, and the “MV-4-11 Cell Viability % DMSO at 15 μM” value (MV-4-11 cells) was 97 % DMSO and the “MV-4-11 Cell Viability % DMSO at 30 μM” value (MV-4-11 cells) was 96 % DMSO.

With `Cc1nc2ccsc2c(=O)n1C1CCC(=O)NC1=O` (stereo not drawn) [Compound 1, 3-(2-methyl-4-oxothieno[3,2-d]pyrimidin-3(4H)-yl)piperidine-2,6-dione] the “GSPT1 % Degradation at 15 μM” value (GSPT1) was 23% and the “GSPT1 % Degradation at 30 μM” value (GSPT1) was 0%.

In the case of `Cc1nc2cc(Br)sc2c(=O)n1C1CCC(=O)NC1=O` (stereo not drawn) [Compound 4, 3-(6-bromo-2-methyl-4-oxothieno[3,2-d]pyrimidin-3(4H)-yl)piperidine-2,6-dione], the “PDE6D % Degradation at 15 μM” value (PDE6D) is reported as 49%, the “PDE6D % Degradation at 30 μM” value (PDE6D) is reported as 75% and the “MV-4-11 Cell Viability % DMSO at 15 μM” value (MV-4-11 cells) is reported as 100 % DMSO. The “MV-4-11 Cell Viability % DMSO at 30 μM” value (MV-4-11 cells) was 97 % DMSO.

With `Cc1nc2c(N)csc2c(=O)n1C1CCC(=O)NC1=O` (stereo not drawn) [Compound 9, 3-(7-amino-2-methyl-4-oxothieno[3,2-d]pyrimidin-3(4H)-yl)piperidine-2,6-dione] the “CK1α % Degradation at 15 μM” value (CK1α) was 24% and the “CK1α % Degradation at 30 μM” value (CK1α) was 12%.
